Test results from patent US11077151B2, “Ascaroside treatment of autoimmune and inflammatory diseases” (California Institute of Technology, priority 2016, dated 2021).

Columns and labels:
[1] = tested on: ovalbumin model of murine asthma (C57BL/6 mice); assay: Ovalbumin model of murine asthma; assay type: in vivo, mouse
Protocol: Adult C57BL/6 mice were sensitized by administering 2 ug OVA (Sigma-Aldrich) and 1 mg alum (Thermo) with 50 ng ascr #7 or saline, via intraperitoneal injection, on Day 0 and 14. On day 24, the mice were challenged with intranasal administration of saline containing 100 μg OVA, under isoflurane anesthesia. Histologic sections were stained with H&E or PAS to score for eosinophilia, goblet cell metaplasia, and airway hyper-reactivity. Mice were also placed in a computer controlled small animal ventilator (SCIREQ) to score for airway hyper-reactivity following methacholine challenge. […] Animals with asthma have higher resistance of flow, which would be represented as higher “RL” values in FIG. 3B. […] Lungs were collected, postmortem, and then sectioned and stained to show the presence of eosinophils and mucus. […] In FIG. 3C, the asthmatic mouse lung, here labeled “Control” has a large number of mucus and eosinophils that surround the bronchioles and occupy the alveolar space; wherein the thick barriers would prohibit oxygen from easily diffusing.

[2] = tested on: IL-6 secretion, bone marrow-derived mouse dendritic cells; assay: IL-6 secretion by TNF-α stimulated bone marrow dendritic cells (ELISA); assay type: cell-based; details: different concentrations of ascr #7
Protocol: (§1) Bone marrow was extracted from femurs of C57BL/6 mice (6-12 weeks of age). These mice were euthanized by CO2 inhalation and their femurs were removed. After removing the remaining flesh from the bone, they were cut at the metaphysis. Bone marrow was flushed out using a syringe filled with RPMI. The extracted marrow was further broken down by resuspension with syringe. The mixture was centrifuged and the pellet was re-suspended in RPMI. […] 20 ng of GM-CSF was added to each well. At day 3, and every 3 days thereafter, the media was replaced. Cells were used for experiments between day 7-9.
(§2) Bone marrow dendritic cells were collected between day 7-9 of culture. Cells were washed twice and counted. Ascr #7 in water or RPMI were placed in corresponding wells, and are allowed to dry. 10^6 cells were then plated in each well in a 24 well culture plate. Cells were left to incubate with ascr #7 for 5 minutes. Following the brief incubation, different TNFα was added to the wells. These bone marrow dendritic cells were then cultured at 37° C. for 18-72 hours. Cells were collected via the pellet generated by centrifuge. The supernatant was also preserved. EBioscience ELISA kits was used to determine the concentration of different cytokines present in each well.

[3] = tested on: NOD/ShiLtJ mouse model of Type 1 Diabetes; assay: NOD/ShiLtJ mouse model of Type 1 Diabetes; assay type: in vivo; details: 100 ng ascr #7 i.p. three times a week
Protocol: The NOD/ShiLtJ (Jackson Laboratories) mouse model of Type 1 Diabetes was used These mice typically develop hyperglycemia around 17-18 weeks of life. Either saline or 100 ng ascr #7 was administered three times a week via intraperitoneal injection. Blood glucose levels were determined in the same mouse over time, via the collected of tail vein blood (as shown in FIG. 4A) at multiple time points. […] 8 mice were injected with saline and 8 mice were injected with ascr #7, as described above.

[4] = tested on: T cell transfer model of colitis, Rag -/- mice; assay: T cell transfer model of colitis (IBD); assay type: in vivo, mouse; details: 300 ng ascr #7 i.p. every 3 days, day 14 to 28
Protocol: A T cell transfer model of colitis where 10^6CD4+ T cells were transferred to adult Rag −/− mice was used, and either saline or 300 ng ascr #7 were administered via intraperitoneal injection every 3 days between day 14 and day 28. On day 28, the mice were euthanized and colon analysis was performed. n=3 mice per group. […] The normal mouse colon is long, skinny, and has discrete fecal pellets. The diseased mouse colon, with IBD, has a shortened, dilated colon, with diarrhea instead of discrete fecal pellets.

[5] = tested on: IL-1β secretion, bone marrow-derived mouse dendritic cells; assay: IL-1β secretion by TNF-α stimulated bone marrow dendritic cells (ELISA); assay type: cell-based; details: different concentrations of ascr #7
Protocol: as §1, §2

IL-6 receptor = molecular target: T1, IL-6 receptor (Homo sapiens, UniProt P08887); details: cited from earlier work
T1 construct: host or cells: human patients (endogenous receptor)
T1 sequence (P08887 20-468): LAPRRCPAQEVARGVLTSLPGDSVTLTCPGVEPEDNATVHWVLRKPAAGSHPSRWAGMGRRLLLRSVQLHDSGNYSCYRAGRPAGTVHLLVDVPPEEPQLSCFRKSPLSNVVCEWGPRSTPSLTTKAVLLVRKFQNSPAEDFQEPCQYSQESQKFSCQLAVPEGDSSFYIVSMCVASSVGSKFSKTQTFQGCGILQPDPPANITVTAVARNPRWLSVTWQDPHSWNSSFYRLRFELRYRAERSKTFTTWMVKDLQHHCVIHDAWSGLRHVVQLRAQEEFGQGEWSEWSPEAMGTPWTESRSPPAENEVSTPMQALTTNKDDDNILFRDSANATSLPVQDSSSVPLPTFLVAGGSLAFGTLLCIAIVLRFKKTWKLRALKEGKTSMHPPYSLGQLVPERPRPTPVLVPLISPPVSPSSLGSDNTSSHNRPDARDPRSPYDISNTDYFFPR

[6] = ovalbumin model, 50 ng ascr #7 i.p.

C[C@H](CC/C=C/C(=O)O)O[C@@H]1O[C@@H](C)[C@H](O)C[C@H]1O [ascr #7]
lung histology (boundaries between bronchioles and alveolar space; eosinophils and mucus) ([1]; 50 ng ascr #7 i.p. Day 0 and 14, stained lung sections, FIG. 3C): thin boundaries between the bronchioles and the alveolar space, comparable to the normal mice | resistance of air flow (RL) ([1]; 50 ng ascr #7 i.p. Day 0 and 14 with OVA/alum, methacholine challenge, FIG. 3B): low resistance of air flow, with comparable levels to normal mice | development of airway hyper-reactivity [1, 6]: reduces | development of eosinophilia [1, 6]: reduces | development of goblet cell metaplasia [1, 6]: reduces | IL-6 level ([2]; dendritic cells not stimulated with TNF-α, FIG. 1 left): very low levels of IL-6 | secreted IL-6 level ([2]; dendritic cells stimulated with TNF-α, FIG. 1 right): reduces these levels significantly | blood glucose levels, individual mice ([3]; throughout 18 weeks, FIG. 4B): significantly reduced blood glucose levels | blood glucose levels, group average vs untreated group ([3]; week 18, FIG. 4C): significantly lower blood glucose levels | conversion to hyperglycemia ([3]; NOD mice): delays conversion to hyperglycemia | development of abnormal lumen dilation [4]: markedly reduces | development of colon shortening [4]: markedly reduces | development of diarrhea [4]: markedly reduces | colon appearance on day 28 ([4]; FIG. 5): normal appearing colon, which is long, skinny, and contains discrete fecal pellets | IL-1β level ([5]; dendritic cells not stimulated with TNF-α, FIG. 2 left): very low levels of IL-1β | secreted IL-1β level ([5]; dendritic cells stimulated with TNF-α, FIG. 2 right): reduces these levels significantly

Tocilizumab: a humanized anti-IL-6 receptor antibody
clinical activity of atopic dermatitis (IL-6 receptor; 3 patients with severe atopic dermatitis, Navarini et al. 2011): decreased clinical activity | relapse rates, neuropathic pain and general fatigue, neuromyelitis optica (IL-6 receptor; after one year of treatment, Araki et al. 2014): decreased | manifestations of eosinophilic fasciitis (IL-6 receptor; at 6 months, Espinoza et al. 2015): remission of both articular and cutaneous manifestations | disease remission, severe multisystemic microscopic polyangiitis (IL-6 receptor; one patient, Berti et al. 2015): complete and sustained disease remission | treatment of uveitis (IL-6 receptor; patients, Mesquida et al. 2014): effective | inflammatory response and quality of life measures, Cogan's syndrome (IL-6 receptor; person, relapsed after prednisone, Shibuya et al. 2013): successfully improved
